# Publication PMC6615598, “Novel antibiotics effective against gram-positive and -negative multi-resistant bacteria with limited resistance” (PLoS Biology, 2019)
# Where “and” joins values, the source holds several entries; their conditions need not be identical. Equal entries are not always repeated. Starred links: 1 amine or outer side, 2 acyl side, 3 side chain; linkers in the order of their positions; H or OH if unused. Non-standard residues stand in square brackets, D forms with d. Residues, ends and D or L forms follow the SMILES beside them. azaβ3(1Nal) = O=C(CN(Cc1cccc2ccccc12)N[*:1])[*:2]
# How the values were obtained:
# [1] = tested on: E. coli ML-35p; assay: Outer membrane permeability, nitrocefin cleavage; assay type: cell-based; conditions: concentration near MIC
# Experimental: Outer and inner membrane permeability was determined on E. coli ML-35p, a lactose permease-deficient strain [8]. Permeation assays were carried out on 100 μl MHB from bacteria cultures grown to 0.15 OD600 (10^7 CFU/ml). Nitrocefin (20 μg/ml) was added to the tested molecules at a concentration near to their MICs, and cleavage was monitored by light absorption at 500 nm (outer membrane monitoring). Inner membrane monitoring of cleavage of ONPG (100 μg/ml) and substrate was monitored at 420 nm. Polymyxin B was a positive control, while a bacterial suspension in MHB was the negative control. Permeation assays were also performed on gram-positive S. aureus membranes (MSSA and MRSA) by fluorescence assay with SYTO Green nucleic acid stain (Life Technologies) in black flat-bottom 96-well microtiter plates (Greiner) in biological triplicate. Bacteria were grown to 0.3–0.4 OD600 in CAMHB at 37°C and centrifuged at 3,500 tr/min for 10 min. The pellet was washed and dissolved in PBS to an absorbance of 0.4 at 600 nm (approximately 2.10^8 CFU/ml). […] The amount of 50 μL of bacteria/SYTO Green mixture was added to each well containing compounds serially diluted in PBS, and fluorescence was measured at 37°C for up to 12 h using a spectrophotometer (BIOTEK, Tungsten-Halogen Lamp) with 485 nm excitation and 525 nm emission wavelengths.
# [2] = tested on: S. aureus; assay: Intracellular ATP levels of SCV versus normal colonies from skin abscesses; assay type: cell-based; conditions: individual values
# Experimental: For the cutaneous abscess model, the mice were randomly divided into 5 sets. The mice were anesthetized with isoflurane, their dorsal fur shaved, and their skin disinfected with 70% ethanol. An overnight culture of S. aureus MRSA or P. aeruginosa LESB58 was washed with 0.9% NaCl, and then a subcutaneous injection of 2 × 10^9 CFUs and an equal amount of sterile Cytodex microcarrier beads (20 mg.ml^−1, Sigma) for S. aureus MRSA, or 10^8 CFUs for P. aeruginosa were injected into the shaved area. […] Mice were monitored every day and then euthanized with CO2 on Day 6 or on Day 3. Abscesses were excised, measured, and homogenized in PBS using an Ultra-Turax. Serial dilutions of the samples were plated on BHI (MRSA) or 2YT medium (LESB58) plates and then incubated overnight at 37°C. Afterward, the CFUs were counted and expressed as log CFU/ml. Dermonecrosis areas were calculated according to the formula π × L × W. ATP levels were determined with an ATP assay kit (Promega) according to manufacturer instructions on sets of 5 colonies harboring the SCV phenotype, and sets of 5 colonies harboring a normal phenotype, after growth on BHI plates.
# [3] = tested on: P. aeruginosa LESB58; conditions: LESB58
# Experimental: (10−4 M final concentrations). At selected time intervals, 100 μl of reaction mixture was collected, quenched by 200 μl 95% EtOH, and adjusted at pH 2 to prevent peptide adsorption to serum proteins. […] Supernatants were analyzed by RP-HPLC on an Xbridge C18 column with a linear gradient of water, 0.08% TFA, and acetonitrile with 1% TFA. HPLC peak areas were used to calculate the percentages of intact compound remaining at the various time points. MIC and MBC values were determined in triplicate in many ESKAPE clinical isolates, including a dozen MDR S. aureus, by the broth microdilution method. Peptidomimetics and antibiotics were assayed in a concentration range of 1 to 128 μM. […] After every hour of culture for 4 h, serial dilutions were plated on BHI plates and incubated overnight at 37°C, and then the CFUs were counted and expressed as log CFU/ml. […]
# For 15 d in MHB, MICs were determined daily for each pseudopeptide and their antibiotic controls. […] The suspension was diluted in MHB or CAMHB (10^6 cells/ml) and then used to determine the MIC of the same compound determined by micro broth dilution. […] To control compound stability, peptide solution MICs were determined during and at the end of the 15 d and were compared to cells unexposed to antibiotics. In vivo resistance was also assessed in treated mice (1.5 mg.kg^−1) for 4 d (sepsis) or 6 d (skin abscesses). […]
compound,measurement,setting,value
CC(C)[C@@H]1NC(=O)[C@H](CCCNC(=N)N)NC(=O)[C@H](CCCNC(=N)N)NC(=O)CN(Cc2cccc3ccccc23)NC(=O)[C@H](Cc2ccccc2)NC(=O)CN(Cc2cccc3ccccc23)NC(=O)[C@H](CCCCN)NC1=O [Pep19] (cyclo([azaβ3(1Nal)]F[azaβ3(1Nal)]RRVK)),Outer membrane permeation,[1],most active
same,"Intracellular ATP level, 'normal growing'",[2]; 'normal growing' colonies from MRSA abscesses of mice treated IV with 1.5 mg.kg-1,128624 AU and 143636 AU and 122235 AU and 111054 AU and 122356 AU
same,"Intracellular ATP level, SCV",[2]; SCV from MRSA abscesses of mice treated IV with 1.5 mg.kg-1,21955.1 AU and 16114.9 AU and 17911.8 AU and 16800 AU and 28088.5 AU
same,MIC,[3],4 µM
